Results from article PMC3951324, “Side Chain Hydrophobicity Modulates Therapeutic Activity and Membrane Selectivity of Antimicrobial Peptide Mastoparan-X” (PLoS ONE, 2014).
Ends that are not written are not given here.

Legend:
[1] = Pyrene-cmc assay (micelle/aggregate formation); assay type: physicochemical
Procedure: Fluorescence excitation spectra were collected using an Olis modernized SLM8000 fluorescence spectrophotometer equipped with single-grating emission and double-grating excitation monochromator. The fluorometer was equipped with photon counter detectors. Pyrene was used to probe micellation as it is sensitive to environment hydrophobicity. Peptides were incubated in concentrations of 0.1–1000 µM in 10 mM HEPES, 100 mM sodium chloride, pH 7.4 buffer containing 75 nM pyrene. Samples were incubated for 2 h at 60°C followed by incubation overnight at room temperature and kept in the dark until measured. Measurements were carried out at 37°C. Excitation spectra were collected using emission wavelength 390 nm and 16 nm emission slit sizes. Excitation spectra were scanned in range 310–350 nm with excitation slits sizes of 0.5 nm. The excitation spectrum shift denotes the formation of micelles/aggregates (hydrophobic cavity), which is gauged by intensity ratio R = I339/I333 [29],[30]. The plot of R versus the detergent/peptide concentration, c, measures the partitioning of pyrene into the formed micelles/aggregates. The intensity ratio is fitted using the sigmoidal function [drawing 1] , where R0 and ΔR denote the initial and change in intensity ratio, respectively. α and ci denote the normalized slope and peptide concentration at which curve inflection occurs, respectively. […]

[2] = Peptide partitioning by ITC; assay type: physicochemical; conditions: 37°C
Procedure: Lipid stock solutions of POPC and POPG were prepared in chloroform∶methanol (9∶1). Mixtures of POPC∶POPG (3∶1) were prepared and the organic solvent was evaporated under a gentle stream of nitrogen. The lipid films were kept in vacuum (P<0.1 Pa) overnight in order to remove the residual solvent. Buffer containing 10 mM HEPES and 100 mM sodium chloride (pH 7.4) was added to the lipid films, and they were hydrated for 60 min followed by extrusion through 100 nm using an Avanti mini-extruder. Dynamic Light Scattering (DLS, Brookhaven Instrument Corporation, ZetaPALS) was used for measuring the liposome size distribution. The effective lipid concentration was determined by inductively coupled plasma atomic emission spectroscopy (ICP-AES Vista AX, Varian).
The partitioning of AMPs onto lipid membranes was investigated by isothermal titration calorimetry (ITC, iTC200, Microcal, 204 µL cell volume). For the peptide analogues MPX, Ala1 and Ala14, 10 mM […] (3∶1) LUVs were injected (19×2 µL) into a 20 µM peptide solution at T = 37°C. The speed of the stirrer was 1000 rpms, and all titration were initiated with a 0.5 µL pre-injection. The heat-traces were integrated using custom made software, and the heat of partitioning was analysed using a partitioning isotherm based on Gouy-Chapman-Stern description of the electrostatic interaction of the peptide and membrane, [32]. The effective charge of the peptide (zeff), the partitioning coefficient of insertion (Kins), the molar enthalpy of partitioning ( [drawing 4] ), and the heat of dilution (qdil) were extracted as fitting parameters. The effective partitioning coefficient was derived as [drawing 5] where F is Faradays constant, [drawing 6] is the electrostatic potential evaluated at the interface of a fully charged membrane (25mol% negative charge before insertion of the first peptide), and R is the ideal gas constant. The instrument was electrically calibrated, and blank titration of LUVs into buffer was performed to ensure that heat of dilution could be modelled as a constant in the data analysis. Each titration was conducted in triplicates.

[3] = system: Escherichia coli, strain INV-α; test: Determination of minimal inhibitory concentration (MIC); assay type: cell-based; conditions: LB medium, 37°C, 20 h, shaking, peptide 0.05–50 µM, absorbance 570 nm, triplicates
Procedure: (§1) A stock dilution series with ten points, ranging from 1 µM to 1 mM, was prepared in sterile PBS from freshly dissolved peptides. The dilution series was dispensed in triplicates in 96-deepwell microtiter plates (VWR Denmark, Herlev, Denmark), with 15 µl in each well. Multidispensing with electronic pipettes (Biohit, Tåstrup, Denmark) was used throughout. Lactococcus lactis, strain MG1363 (ATCC, LGC Standards AB, Boras, Sweden) and Escherichia coli, strain INV-α (Invitrogen, Nærum, Denmark) were grown in M9 (Sigma Aldrich, Brøndby, Denmark) and LB medium (Difco, BD Biosciences, Brøndby Denmark), respectively. A single colony was grown overnight at 30°C and 37°C for L.lactis and E.coli respectively. The next day, a fresh culture was started with a twenty-fold dilution of the cells and grown for exactly 60 min (optical density was approximately 0.4 at 570 nm). The cell culture was diluted (300 fold for L.lactis and 1000 fold for E.coli) before adding 150 µl to microtiter plates already containing 15 µl peptide solution and 135 µl fresh medium. […] Plates with L.lactis were sealed with lid and parafilm, and plates with E.coli were sealed with a gas-permeable tape (VWR Denmark, Herlev, Denmark). The plates were incubated at the respective temperatures for 20 hours with shaking (150 rpm). For each measurement, 100 µl of the cell culture was transferred to clear, flat-bottomed microtiter plates, and the absorbance at 570 nm was determined using a Victor3 plate reader (Perkin Elmer, Skovlunde, Denmark). The measurement was conducted in triplicates.

[4] = system: Lactococcus lactis, strain MG1363; test: as above; assay type: cell-based; conditions: strain MG1363, M9 medium, 30°C, 20 h, shaking; peptide 0.05–50 µM; absorbance 570 nm; triplicates
Procedure: as §1

[5] = obtained via tryptophan fluorescence measurements; cited from earlier work

INWKGIAAMAKKLL-NH2 [MPX, mastoparan X, reference compound]
Critical micelle concentration (cmc) ([1]; pyrene (75 nM) fluorescence excitation shift I339/I333, 10 mM HEPES, 100 mM NaCl, pH 7.4, peptide 0.1–1000 µM, 2 h 60°C then overnight RT, measured at 37°C, cmc = onset of sigmoid, triplicates): >1000 µM
cmc ([1]; pyrene assay, no shift in pyrene excitation spectrum in covered concentration range, pH 7.4, 37°C): > 1 mM
effective charge (zeff) of the peptide ([2]; 10 mM POPC∶POPG (3∶1) 100 nm LUVs injected (19×2 µL) into 20 µM peptide, pH 7.4, Gouy-Chapman-Stern fit, triplicates): 2.5±0.1
partition coefficient of insertion Kins/10^5 ([2]; 10 mM POPC∶POPG (3∶1) LUVs into 20 µM peptide, pH 7.4, Gouy-Chapman-Stern fit, value is Kins divided by 10^5, triplicates): 4.2±0.2
molar enthalpy of partitioning ([2]; 10 mM POPC∶POPG (3∶1) LUVs into 20 µM peptide, pH 7.4, triplicates): -24.0 ± 0.3 kJ/mol
effective partition coefficient Keff/10^8 ([2]; derived from Kins, zeff and the surface potential of fully charged membrane (25 mol% negative charge), value is Keff divided by 10^8): 1.6±0.2
MIC (E. coli) [3]: 8 ± 3 µM
MIC (L. lactis) [4]: 2.5 ± 0.5 µM
effective charge (previous result) [5]: 1.7
